Measurements published in PubChem BioAssay (NCI).
Values joined by “and” are separate entries in the source; they are usually repeats but may differ in a detail not shown here. Equal entries are not always repeated.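 1) Cells in 96-well plates. 2) Compound, 48 h, 5 concentrations. 3) Linear interpolation between surrounding doses. 4) Unreached endpoint = highest concentration. At the GI50, growth is halved. TGI is the concentration that stops growth completely.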

What was measured:
Assay in all cases: NCI tumour cell line growth inhibition, 48 h
[1] = tested on: HOP-92 NSCLC
[2] = tested on: LOX IMVI melanoma
[3] = tested on: COLO 205 colon
[4] = tested on: CCRF-CEM leukemia
[5] = tested on: OVCAR-4 ovarian
[6] = tested on: NCI-H460 lung
[7] = tested on: U251 CNS
[8] = tested on: NCI-H23 lung
[9] = tested on: UACC-257 melanoma
[10] = tested on: SF-295 CNS

Row | Structure (SMILES) | TGI [1] [µM] | TGI [2] [µM] | TGI [3] [µM] | TGI [4] [µM] | TGI [5] [µM] | TGI [6] [µM] | TGI [7] [µM] | TGI [8] [µM] | TGI [9] [µM] | TGI [10] [µM] | GI50 [1] [µM] | GI50 [2] [µM] | GI50 [3] [µM] | GI50 [4] [µM] | GI50 [5] [µM] | GI50 [6] [µM] | GI50 [9] [µM] | GI50 [8] [µM] | GI50 [10] | GI50 [7] [µM]
1 | O=C(c1ccccc1)C(c1ccccc1)C1(O)C(=O)Nc2ccc([N+](=O)[O-])cc21 (stereo not given) | > 100 | > 100 | > 100 | > 100 | > 100 | > 100 | > 100 | > 100 | – | – | – | – | – | – | – | – | – | – | – | –
2 | Nc1nc(N)c(-c2ccccc2)c(C(=O)Nc2ccccc2)n1 | > 100 | > 100 | > 100 | > 100 | > 100 | > 100 | > 100 | > 100 | > 100 | – | – | – | – | – | – | – | – | – | – | –
3 | CCOC(=O)C(N=C(c1ccccc1)c1ccccc1)N(C(=O)OC(C)(C)C)C(=O)OC(C)(C)C (stereo not given) | 66.6 | – | > 100 | – | > 100 | – | > 100 | > 100 | > 100 | > 100 | – | – | – | – | – | – | – | – | – | –
4 | CC(=O)Nc1c(I)c(NC(C)=O)c(I)c(C(=O)O)c1I | > 100 | > 100 | > 100 | > 100 | > 100 | > 100 | – | > 100 | > 100 | – | > 100 | > 100 | > 100 | > 100 | > 100 | > 100 | > 100 | > 100 | – | –
5 | COc1ccc(Cc2c(=O)[nH]nc3ccccc23)cc1 | > 100 | > 100 | > 100 | > 100 | > 100 | > 100 | – | > 100 | > 100 | > 100 | – | – | – | – | – | – | – | – | – | –
6 | N#Cc1c(N)n2c(nc1=Nc1ccc(Cl)cc1)sc1cc(Cl)ccc12 | – | > 100 | – | – | > 100 | > 100 | > 100 | 42.4 | > 100 | 42.9 | – | 13.5 | – | 4.21 | 9.82 | 22 | > 100 | – | 4.12 µM and 3.04 µM | 6.56
7 | CCCCNC(=O)C1C(=O)N(CCCC)C(=O)/C1=N\N (stereo not given) | > 100 | > 100 | > 100 | – | > 100 | > 100 | > 100 | > 100 | > 100 | > 100 | – | – | – | – | – | – | – | – | – | –
8 | COc1cc2c(c(OC)c1OC)-c1ccc(OC)c(=O)cc1[C@@H](NC(C)=O)CC2 | – | > 100 | – | – | > 100 | – | – | – | – | – | – | – | – | – | – | 0.625 | – | – | – | –
9 | COc1ccc2c(c1)CC[C@@H]1[C@@H]2CC[C@]2(C)c3c(cc(C(=O)O)c4sccc34)C[C@@H]12 | – | 42.8 | 70 | 13.3 | 79.8 | 37.7 | 47.5 | 39.2 | 61.4 | 31.9 | – | 17.7 | 16.4 | 3.42 | 26.3 | 11.6 | 26.7 | 18.5 | 14.3 µM | 16.4
10 | CCOC(=O)c1cc(C(=O)c2cc(OC)c(OC)c(OC)c2)n2c1ccc1ccccc12 | > 100 | > 100 | 1.94 | > 100 | – | > 100 | > 100 | > 100 | > 100 | – | 1.43 | 0.669 | 0.26 | 0.322 | – | 0.313 | 2.27 | 0.478 | – | 0.428
11 | O=[N+]([O-])c1cc([N+](=O)[O-])c(/C=C/c2ccc(Cl)c(Cl)c2)cc1/C=C/c1ccc(Cl)c(Cl)c1 | – | 61.6 | 38.6 | 53.4 | > 100 | > 100 | > 100 | 50.8 | 51.3 | 81 | – | – | – | – | – | – | – | – | – | –
12 | CONC(C)=O | – | > 100 | > 100 | > 100 | – | > 100 | > 100 | > 100 | > 100 | > 100 | – | – | – | – | – | – | – | – | – | –
13 | COc1ccc2cc(C(=O)/C=C/c3ccc(N(C)C)cc3)ccc2c1 | > 100 | > 100 | > 100 | – | > 100 | > 100 | > 100 | > 100 | > 100 | > 100 | > 100 | 48.1 | > 100 | – | 81.7 | 62.5 | 36.7 | 41.6 | > 100 µM | 58.9
14 | CCOC(=O)NC/C=C/COC1CCCCO1 (stereo not given) | – | – | > 100 | > 100 | > 100 | > 100 | > 100 | – | > 100 | – | – | – | – | – | – | – | – | – | – | –
15 | N#Cc1c(N2CCOCC2)nc(=S)[nH]c1-c1ccccc1 | > 100 | > 100 | > 100 | > 100 | > 100 | > 100 | > 100 | > 100 | > 100 | – | 3.94 | 23.5 | 19 | 30.9 | 65.7 | 9.57 | 49.8 | 34.5 | – | 60.1
16 | N#CCCCCCOCCOCCOCCOCCOCCCCCC#N | – | > 100 | > 100 | > 100 | > 100 | > 100 | > 100 | > 100 | > 100 | > 100 | – | – | – | – | – | – | – | – | – | –
17 | CCCCCCn1c(-c2ccc(C(=O)O/N=C(\N)c3ccc4ccccc4c3)cc2)nc(-c2ccccc2)c1-c1ccccc1 | 7.77 | – | > 100 | > 100 | > 100 | > 100 | > 100 | > 100 | > 100 | > 83.7 | 1.92 | – | > 100 | 1.51 | > 100 | > 100 | > 100 | 7.57 | 11.8 µM | 7.64
18 | COC(=O)C1=CO[C@@H](OC2OC(CO)C(O)C(O)C2O)[C@H]2[C@@H](C)[C@@H](O)[C@@H](O)[C@@H]12 (stereo not given in full) | > 100 | > 100 | > 100 | – | > 100 | – | > 100 | > 100 | > 100 | > 100 | – | – | – | – | – | – | – | – | – | –
19 | COc1cc(-c2oc3c(OC)cc(OC)c(O)c3c(=O)c2OC)cc(OC)c1OC | > 100 | > 100 | > 100 | – | > 100 | > 100 | > 100 | > 100 | – | 7.55 | – | – | – | – | – | – | – | – | – | –
20 | Cc1ccc(NC(=O)c2cc3ccccc3c(N=Nc3cc(S(=O)(=O)O)ccc3O)c2O)c(C)c1 | > 100 | > 100 | > 100 | 19.6 | > 100 | – | > 100 | 56.6 | > 100 | 88.9 | – | – | – | – | – | – | – | – | – | –
